Literature values as cited in patent US20250241296A1, “HIGH-LOAD AGRICULTURAL FORMULATIONS AND METHODS OF MAKING SAME” (priority 2022, published 2025).

Key:
[1] = footnote a: values from the Chemistry Dashboard of the US Environmental Protection Agency
[2] = footnote a: values from the Chemistry Dashboard of the US Environmental Protection Agency; remark: listed apart in the source

| Molecule | Density [1] | Solubility in Water [2] |
| --- | --- | --- |
| Fc1ccc([C@]2(Cn3cncn3)O[C@H]2c2ccccc2Cl)cc1 (racemic) [Epoxiconazole] | 1.42^a g/mL | – |
| CO/C=C(/C(=O)OC)c1ccccc1Oc1cc(Oc2ccccc2C#N)ncn1 [Azoxystrobin] | 1.34^a g/mL | 6.01^a mg/L |
| COC(=O)Nc1nc2ccccc2[nH]1 [Carbendazim] | 1.39^a g/mL | – |
| CNC(=O)c1cc(Cl)cc(C)c1NC(=O)c1cc(Br)nn1-c1ncccc1Cl [Chlorantraniliprole] | 1.65^a g/mL | – |
| CNC(=O)c1cc(C#N)cc(C)c1NC(=O)c1cc(Br)nn1-c1ncccc1Cl [Cyantraniliprole] | 1.65^a g/mL | – |
| CC(C1CC1)C(O)(Cn1cncn1)c1ccc(Cl)cc1 (stereo not drawn) [Cyproconazole] | 1.31^a g/mL | – |
| O=[N+]([O-])c1cc(C(F)(F)F)c(Cl)c([N+](=O)[O-])c1Nc1ncc(C(F)(F)F)cc1Cl [Fluazinam] | 1.80^a g/mL | – |
| Cc1cc(C(F)(C(F)(F)F)C(F)(F)F)ccc1NC(=O)c1cccc(I)c1C(=O)NC(C)(C)CS(C)(=O)=O [Flubendiamide] | 1.78^a g/mL | – |
| N#Cc1c[nH]cc1-c1cccc2c1OC(F)(F)O2 [Fludioxinil] | 1.54^a g/mL | – |
| N#Cc1ccccc1NC(=O)c1snc(Cl)c1Cl [Isotianil] | 1.56^a g/mL | – |
| COCC(=O)N(c1c(C)cccc1C)[C@H](C)C(=O)OC [Metalaxyl-M] | 1.09^a g/mL | – |
| CNC(=O)/C(=N/OC)c1ccccc1Oc1ccccc1 [Metominostrobin] | 1.13^a g/mL | – |
| Cc1nn(C)c(F)c1C(=O)Nc1ccccc1C(C)CC(C)C (stereo not drawn) [Penflufen] | 1.18^a g/mL | – |
| CO/C=C(/C(=O)OC)c1ccccc1COc1cccc(C(F)(F)F)n1 [Picoxystrobin] | 1.28^a g/mL | 8.30^a mg/L |
| CC12CC1(C)C(=O)N(c1cc(Cl)cc(Cl)c1)C2=O (stereo not drawn) [Procymidone] | 1.43^a g/mL | – |
| CCCC1COC(Cn2cncn2)(c2ccc(Cl)cc2Cl)O1 (stereo not drawn) [Propiconazole] | 1.39^a g/mL | – |
| COC(=O)N(OC)c1ccccc1COc1ccn(-c2ccc(Cl)cc2)n1 [Pyraclostrobin] | 1.34^a g/mL | – |
| CC(c1ccc(C(F)(F)F)nc1)S(C)(=O)=NC#N (stereo not drawn) [Sulfoxaflor] | 1.34^a g/mL | – |
| CN1COCN(Cc2cnc(Cl)s2)/C1=N\[N+](=O)[O-] [Thiamethoxam] | 1.76^a g/mL | – |
| Abamectin | 1.28^a g/mL | 36.4^a mg/L |
| Spinetoram | 1.18^a g/mL | 162^a mg/L |
| Spinosad | 1.20^a g/mL | 295^a mg/L |
